{"source": "patent US7981930B2", "about": "“Compositions and kits for treating influenza” (Adamas Pharmaceuticals, Inc., priority 2007, dated 2011)", "tested_on": "wild type A/Albany (H3N2) strain", "experiment": "Hollow fiber system, MDCK cells, continuous infusion 168 hours, viral titer and sequencing", "type": "cell-based, Influenza A virus (H3N2)", "settings": "monotherapy arms vs. triple high dose arm", "data": [{"smiles": "CCOC(=O)C1=C[C@@H](OC(CC)CC)[C@H](NC(C)=O)[C@@H](N)C1", "note": "[Oseltamivir]", "values": [{"measurement": "formation of drug resistance (M2, NA sequencing)", "result": "appreciable formation of M2 and NA drug resistance"}]}]}
